In patent publication US10988523B2, “Modified lipidated Relaxin B chain peptides and their therapeutic use” (Sanofi, priority 2018, dated 2021):
*1 amine or outer side, *2 acyl side, *3 side chain or, on linkers, in order; H or OH if unused. Where a SMILES comes first, the peptide text is derived from it. Side-chain parts run from the residue outwards. [ ]: non-standard residue; d: D form. The star is where a group is joined. PEG12 = NCCOCCOCCOCCOCCOCCOCCOCCOCCOCCOCCOCCOCCC(=O)O; γGlu = O=C(O)[C@H](CCC(=O)[*:2])N[*:1]; Stearoyl = CCCCCCCCCCCCCCCCCC(=O)*; Palmitoyl = CCCCCCCCCCCCCCCC(=O)*; αMeK = C[C@](N)(CCCCN)C(=O)O; Nle = CCCC[C@H](N)C(=O)O; AEEA = NCCOCCOCC(=O)O; Aib = CC(C)(N)C(=O)O

Legend:
[1] = Pharmacokinetic (PK) determination after i.v. or s.c. administration to rats; assay type: in vivo, Sprague Dawley rats; settings: Sprague Dawley, Rat PK; for C0 / half-life: iv, 1 mg/kg i.v.; for C0: extrapolated plasma concentration at t=0, read-out: C0; for half-life / Cmax / Tmax / bioavailability: plasma; for half-life: read-out: T½ (converted); for Cmax / Tmax: sc, 3 mg/kg s.c.; for bioavailability: subcutaneous, 3 mg/kg s.c. vs 1 mg/kg i.v., dose-corrected AUC ratio
Experimental: Prior to the testing of a peptide batch, its purity (HPLC-UV) was determined. Dose was corrected for presence of salts, solvent and purity.
Sprague Dawley rats were dosed with study peptide at a dose of 1 mg/kg intravenously (i.v.) or 3 mg/kg subcutaneously (s.c.) as a solution in PBS (0.2 mg/ml and 0.6 mg/ml respectively).
Plasma samples were analyzed after protein precipitation via liquid chromatography mass spectrometry (LC/MS).
PK parameters and half-life were calculated using Phoenix 64 (WinNonlin 6.4)-Pharsight (Certara™) (non-compartment model). Values below the limit of quantification (BLQ) were replaced by zero for subsequent calculations and PK analysis.
T½: in-vivo half life, time required for test compound plasma concentration to be divided by two during the PK experiment.
C0: Extrapolated test compound plasma concentration at t=0 time point (i.v. route).
Cmax: maximal test compound plasma concentration at the indicated time point (s.c. route).
Tmax: Time point where Cmax is attained.
F %: s.c. vs i.v. bioavailability, dose-corrected area under curve (AUC) s.c. route divided by AUC i.v.

RXFP1 = molecular target: T1, RXFP1 (Homo sapiens, UniProt Q9HBX9); assay: OVCAR5 cAMP assay (HTRF), RXFP1 agonist activity; assay type: cell-based; settings: for EC50: OVCAR5 cells, cAMP HTRF, read-out: EC50 (nM), OVCAR 5 cells (cAMP); for Emax: OVCAR-5, maximal cAMP relative to H2-relaxin maximum (100%), read-out: EMax, OVCAR 5 cells (cAMP)
T1 construct: OVCAR5 cells expressing endogenous RXFP1; endogenous in cells; host or cells: OVCAR5 cells
T1 sequence (Q9HBX9 1-757): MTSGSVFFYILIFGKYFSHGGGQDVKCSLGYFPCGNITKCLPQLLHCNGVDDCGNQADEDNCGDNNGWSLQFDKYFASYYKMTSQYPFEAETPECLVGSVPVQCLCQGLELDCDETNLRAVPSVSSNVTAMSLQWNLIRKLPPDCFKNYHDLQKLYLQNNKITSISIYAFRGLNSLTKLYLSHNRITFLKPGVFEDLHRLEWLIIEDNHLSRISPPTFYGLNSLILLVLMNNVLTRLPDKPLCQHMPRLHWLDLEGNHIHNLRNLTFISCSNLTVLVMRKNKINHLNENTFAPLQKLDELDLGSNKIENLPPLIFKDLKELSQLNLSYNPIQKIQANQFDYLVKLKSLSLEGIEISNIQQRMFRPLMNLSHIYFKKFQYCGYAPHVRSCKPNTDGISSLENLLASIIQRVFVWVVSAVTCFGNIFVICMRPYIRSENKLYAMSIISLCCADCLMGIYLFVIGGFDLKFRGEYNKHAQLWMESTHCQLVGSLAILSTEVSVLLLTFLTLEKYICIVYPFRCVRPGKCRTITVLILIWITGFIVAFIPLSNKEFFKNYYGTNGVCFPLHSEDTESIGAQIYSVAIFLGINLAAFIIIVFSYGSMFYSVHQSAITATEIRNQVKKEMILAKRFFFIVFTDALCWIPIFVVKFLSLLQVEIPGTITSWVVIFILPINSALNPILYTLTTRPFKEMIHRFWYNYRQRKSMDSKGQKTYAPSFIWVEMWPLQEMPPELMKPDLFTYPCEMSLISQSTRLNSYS
In short: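 OVCAR5 cells (endogenous RXFP1) pretreated 40 min at 37° C with 1 mM IBMX, then exposed to peptides in serum-free medium for 30 min at 37° C. Lysate cAMP read by HTRF; EC50 from variable-slope sigmoidal fit; Emax as % of H2-relaxin maximal cAMP in same run.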

| Compound | C0 [1] | half-life [1] | Cmax [1] | Tmax [1] | bioavailability [1] | EC50 (RXFP1) | Emax (RXFP1) |
| --- | --- | --- | --- | --- | --- | --- | --- |
| CCCCCCCCCCCCCCCC(=O)N[C@@H](CCC(=O)NCCCC[C@H](NC(=O)CC[C@H](NC(=O)CC[C@H](NC(=O)CC[C@H](NC(=O)COCCOCCNC(=O)COCCOCCNC(=O)COCCOCCNC(=O)COCCOCCNC(=O)[C@H](CCCCNC(C)=O)NC(=O)[C@H](C)NC(=O)[C@H](CCCNC(=N)N)NC(=O)[C@](C)(CCCCN)NC(=O)[C@H](CO)NC(=O)[C@H](Cc1ccccc1)NC(=O)[C@@H](NC(=O)[C@H](CO)NC(=O)[C@H](CCCC)NC(=O)CNC(=O)[C@H](CCC(=O)O)NC(=O)C(C)(C)NC(=O)C(C)(C)NC(=O)[C@@H](NC(=O)[C@H](CCCCNC(C)=O)NC(=O)[C@H](C)NC(=O)[C@H](CCCNC(=N)N)NC(=O)[C@@H](NC(=O)[C@H](CCCCN)NC(=O)[C@H](CCC(=O)O)NC(=O)[C@H](CCCNC(=N)N)NC(=O)CNC(=O)[C@H](CCC(=O)O)NC(=O)[C@H](CC(C)C)NC(C)=O)C(C)C)[C@@H](C)CC)[C@@H](C)O)C(=O)O)C(=O)O)C(=O)O)C(N)=O)C(=O)O [compound 149] (Ac-LEGREKVRAK(Ac)I[Aib][Aib]EG[Nle]STFS[αMeK]RAK(Ac)[AEEA][AEEA][AEEA][AEEA][γGlu][γGlu][γGlu]K([γGlu-Palmitoyl])-NH2) | 3330 nM | 4.33 h | 2500 nM | 6 h | 128% | 0.11 nM | 87% |
| CCCCCCCCCCCCCCCCCC(=O)N[C@@H](CCC(=O)N[C@@H](CCC(=O)N[C@@H](CCC(=O)NCCOCCOCC(=O)NCCOCCOCC(=O)NCCOCCOCC(=O)NCCCC[C@H](NC(=O)[C@H](CCCCN)NC(=O)[C@H](CCCNC(=N)N)NC(=O)C(C)(C)NC(=O)[C@H](CO)NC(=O)[C@H](Cc1c[nH]c2ccccc12)NC(=O)[C@@H](NC(=O)[C@H](CO)NC(=O)[C@H](CCCC)NC(=O)CNC(=O)[C@H](CCC(=O)O)NC(=O)C(C)(C)NC(=O)C(C)(C)NC(=O)[C@@H](NC(=O)[C@H](CCC(N)=O)NC(=O)[C@H](C)NC(=O)[C@H](CCCNC(=N)N)NC(=O)[C@@H](NC(=O)[C@H](CCCCN)NC(=O)[C@H](CCC(=O)O)NC(=O)[C@H](CCCNC(=N)N)NC(=O)CNC(=O)[C@H](CCC(=O)O)NC(=O)[C@H](CC(C)C)NC(C)=O)C(C)C)[C@@H](C)CC)[C@@H](C)O)C(N)=O)C(=O)O)C(=O)O)C(=O)O [compound 74] (Ac-LEGREKVRAQI[Aib][Aib]EG[Nle]STWS[Aib]RKK([AEEA-AEEA-AEEA-γGlu-γGlu-γGlu-Stearoyl])-NH2) | 3000 nM | 3.89 h | 1630 nM | 7 h | 70% | 0.07 nM | 85% |
| CCCCCCCCCCCCCCCCCC(=O)N[C@@H](CCC(=O)N[C@@H](CCC(=O)N[C@@H](CCC(=O)N[C@@H](CCC(=O)NCCOCCOCC(=O)NCCOCCOCC(=O)NCCOCCOCC(=O)NCCCC[C@H](NC(=O)[C@H](CCCCNC(C)=O)NC(=O)[C@H](CCCCN)NC(=O)[C@H](CCCNC(=N)N)NC(=O)[C@](C)(CCCCN)NC(=O)[C@H](CO)NC(=O)[C@H](Cc1c[nH]c2ccccc12)NC(=O)[C@@H](NC(=O)[C@H](CO)NC(=O)[C@H](CCCC)NC(=O)CNC(=O)[C@H](CCC(=O)O)NC(=O)C(C)(C)NC(=O)C(C)(C)NC(=O)[C@@H](NC(=O)[C@H](CCCCNC(C)=O)NC(=O)[C@H](C)NC(=O)[C@H](CCCNC(=N)N)NC(=O)[C@@H](NC(=O)[C@H](CCCCN)NC(=O)[C@H](CCC(=O)O)NC(=O)[C@H](CCCNC(=N)N)NC(=O)CNC(=O)[C@H](CCC(=O)O)NC(=O)[C@H](CC(C)C)NC(C)=O)C(C)C)[C@@H](C)CC)[C@@H](C)O)C(N)=O)C(=O)O)C(=O)O)C(=O)O)C(=O)O [compound 82] (Ac-LEGREKVRAK(Ac)I[Aib][Aib]EG[Nle]STWS[αMeK]RKK(Ac)K([AEEA-AEEA-AEEA-γGlu-γGlu-γGlu-γGlu-Stearoyl])-NH2) | 2600 nM | 3.4 h | 1200 nM | 7 h | 114% | 0.02 nM | 89% |
| CCCCCCCCCCCCCCCC(=O)N[C@@H](CCC(=O)N[C@@H](CCC(=O)NCCCC[C@H](NC(=O)CC[C@H](NC(=O)CC[C@H](NC(=O)COCCOCCNC(=O)COCCOCCNC(=O)COCCOCCNC(=O)COCCOCCNC(=O)[C@H](CCCCNC(C)=O)NC(=O)[C@H](C)NC(=O)[C@H](CCCNC(=N)N)NC(=O)[C@](C)(CCCCN)NC(=O)[C@H](CO)NC(=O)[C@H](Cc1ccccc1)NC(=O)[C@@H](NC(=O)[C@H](CO)NC(=O)[C@H](CCCC)NC(=O)CNC(=O)[C@H](CCC(=O)O)NC(=O)C(C)(C)NC(=O)C(C)(C)NC(=O)[C@@H](NC(=O)[C@H](CCCCNC(C)=O)NC(=O)[C@H](C)NC(=O)[C@H](CCCNC(=N)N)NC(=O)[C@@H](NC(=O)[C@H](CCCCN)NC(=O)[C@H](CCC(=O)O)NC(=O)[C@H](CCCNC(=N)N)NC(=O)CNC(=O)[C@H](CCC(=O)O)NC(=O)[C@H](CC(C)C)NC(C)=O)C(C)C)[C@@H](C)CC)[C@@H](C)O)C(=O)O)C(=O)O)C(N)=O)C(=O)O)C(=O)O [compound 160] (Ac-LEGREKVRAK(Ac)I[Aib][Aib]EG[Nle]STFS[αMeK]RAK(Ac)[AEEA][AEEA][AEEA][AEEA][γGlu][γGlu]K([γGlu-γGlu-Palmitoyl])-NH2) | 2500 nM | 5.3 h | 1200 nM | 7 h | 66% | 0.28 nM | 86% |
| CCCCCCCCCCCCCCCC(=O)N[C@@H](CCC(=O)N[C@@H](CCC(=O)N[C@@H](CCC(=O)NCCCC[C@H](NC(=O)CCOCCOCCOCCOCCOCCOCCOCCOCCOCCOCCOCCOCCNC(=O)[C@H](CCCCN)NC(=O)[C@H](CCCNC(=N)N)NC(=O)C(C)(C)NC(=O)[C@H](CO)NC(=O)[C@H](Cc1c[nH]c2ccccc12)NC(=O)[C@@H](NC(=O)[C@H](CO)NC(=O)[C@H](CCCC)NC(=O)CNC(=O)[C@H](CCC(=O)O)NC(=O)C(C)(C)NC(=O)C(C)(C)NC(=O)[C@@H](NC(=O)[C@H](CCC(N)=O)NC(=O)[C@H](C)NC(=O)[C@H](CCCNC(=N)N)NC(=O)[C@@H](NC(=O)[C@H](CCCCN)NC(=O)[C@H](CCC(=O)O)NC(=O)[C@H](CCCNC(=N)N)NC(=O)CNC(=O)[C@H](CCC(=O)O)NC(=O)[C@H](CC(C)C)NC(C)=O)C(C)C)[C@@H](C)CC)[C@@H](C)O)C(N)=O)C(=O)O)C(=O)O)C(=O)O [compound 24] (Ac-LEGREKVRAQI[Aib][Aib]EG[Nle]STWS[Aib]RK[PEG12]K([γGlu-γGlu-γGlu-Palmitoyl])-NH2) | 3700 nM | 6.4 h | 1800 nM | 5 h | 81% | – | 74% |
| CCCCCCCCCCCCCCCC(=O)N[C@@H](CCC(=O)N[C@@H](CCC(=O)N[C@@H](CCC(=O)NCCCC[C@H](NC(=O)CCOCCOCCOCCOCCOCCOCCOCCOCCOCCOCCOCCOCCNC(=O)[C@H](CCCCNC(C)=O)NC(=O)[C@H](CCCCN)NC(=O)[C@H](CCCNC(=N)N)NC(=O)C(C)(C)NC(=O)[C@H](CO)NC(=O)[C@H](Cc1c[nH]c2ccccc12)NC(=O)[C@@H](NC(=O)[C@H](CO)NC(=O)[C@H](CCCC)NC(=O)CNC(=O)[C@H](CCC(=O)O)NC(=O)C(C)(C)NC(=O)C(C)(C)NC(=O)[C@@H](NC(=O)[C@H](CCCCNC(C)=O)NC(=O)[C@H](C)NC(=O)[C@H](CCCNC(=N)N)NC(=O)[C@@H](NC(=O)[C@H](CCCCN)NC(=O)[C@H](CCC(=O)O)NC(=O)[C@H](CCCNC(=N)N)NC(=O)CNC(=O)[C@H](CCC(=O)O)NC(=O)[C@H](CC(C)C)NC(C)=O)C(C)C)[C@@H](C)CC)[C@@H](C)O)C(N)=O)C(=O)O)C(=O)O)C(=O)O [compound 26] (Ac-LEGREKVRAK(Ac)I[Aib][Aib]EG[Nle]STWS[Aib]RKK(Ac)[PEG12]K([γGlu-γGlu-γGlu-Palmitoyl])-NH2) | 2330 nM | 5.8 h | 770 nM | 8 h | 72% | 0.57 nM | 85% |
